Reference: US20230391748A1, “BICYCLIC INHIBITORS OF IRAK” (priority 2022, published 2023)

Assays:
IL23p19 in THP-1 Cells = assay: LPS Induced IL23p19 in THP-1 Cells (with IFNγ Primed) Assay; type: cell-based; details: Homo sapiens, THP-1, 18 h, read-out: IL23 (THP, LPS) (IC50, μM)
How it was run: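 THP-1 cells (50K/well) primed with IFNγ (50 ng/mL) about 18 h, then given compound and stimulated with LPS for 18 h at 37 °C. Secreted IL-23p19 measured by sandwich ELISA with chemiluminescent read-out, giving EC50. Cell Titer Glo used on the remaining cells for toxicity.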

TNF-α in human PBMCs = assay: R848-induced TNF-α in human PBMCs Assay; type: cell-based; details: Homo sapiens, PBMC, 4 h, read-out: TNFα (PBMC, R848) (IC50, μM)
How it was run: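 Human PBMCs at 200K/well were pretreated with compound, then R848-stimulated for 4 h at 37 °C, 5% CO2. Supernatant TNF-α quantified by chemiluminescent ELISA; EC50 from curve fitting.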

[1] = test system: TNF-α in Human Primary Monocyte-Derived Dendritic Cells; assay: Gardiquimod-Induced TNF-α in Human Primary Monocyte-Derived Dendritic Cells; type: cell-based; details: Dendritic cell, IFNγ-primed monocyte-derived dendritic cells, 4 μg/ml Gardiquimod, 6 hours, TNF-α ELISA, read-out: TNFα (DC, GARD) (IC50)
How it was run: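 Monocytes differentiated 7 days with GM-CSF and IL-4, then primed 24 h with 50 ng/ml IFN-γ. Compound added 1 h before 6 h stimulation with 4 μg/ml Gardiquimod, 0.5% DMSO final. Supernatant TNF-α measured by chemiluminescent ELISA; EC50 from curve fitting.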

IRAK4 = IRAK4 (Homo sapiens (Human), UniProt Q9NWZ3); assay: IRAK4 ADP-Glo Assay; type: biochemical; details: MBP substrate
How it was run: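 Human IRAK4 kinase reaction with MBP substrate plus ATP in Tris-HCl/MgCl2/BSA/DTT buffer, pH 7.4, run 60 min at room temperature or 30 min at 30 °C. ADP formed was measured by ADP-Glo luminescence after ATP depletion (40 min) and detection reagent (30 min).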

IRAK4, sequence (Q9NWZ3 whole entry): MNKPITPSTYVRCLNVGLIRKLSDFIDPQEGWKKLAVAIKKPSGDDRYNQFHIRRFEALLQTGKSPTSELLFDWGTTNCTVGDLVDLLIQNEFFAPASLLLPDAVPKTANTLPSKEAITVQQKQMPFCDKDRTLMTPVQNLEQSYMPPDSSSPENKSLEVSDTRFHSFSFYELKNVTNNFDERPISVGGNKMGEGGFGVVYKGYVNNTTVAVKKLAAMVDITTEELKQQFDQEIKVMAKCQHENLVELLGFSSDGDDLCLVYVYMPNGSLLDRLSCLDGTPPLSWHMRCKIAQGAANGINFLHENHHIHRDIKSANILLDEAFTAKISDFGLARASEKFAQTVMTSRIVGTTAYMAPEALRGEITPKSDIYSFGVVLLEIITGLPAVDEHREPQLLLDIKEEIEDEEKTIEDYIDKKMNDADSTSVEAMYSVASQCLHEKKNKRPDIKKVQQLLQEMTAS

`CCO[C@H]1CC[C@@H](C#Cc2cnc(OC[C@@H]3CC(F)(F)C(=O)N3)c3cc(OC(C)C)c(C(N)=O)cc23)CC1` [Compound I-59, 1-(((S)-4,4-difluoro-5-oxopyrrolidin-2-yl)methoxy)-4-((cis-4-ethoxycyclohexyl)ethynyl)-7-isopropoxyisoquinoline-6-carboxamide] gave an IC50 (IL23p19 in THP-1 Cells) of 0.0466 µM, an IC50 (TNF-α in human PBMCs) of 0.0472 µM and an IC50 [1] of 32 nM. It also gave an IC50 (IRAK4) of 3.9 nM.

`CC(C)Oc1cc2c(OC[C@@H]3CC(F)(F)C(=O)N3)ncc(C#C[C@H]3CC[C@](C)(O)CC3)c2cc1C(N)=O` [Compound I-60, 1-(((S)-4,4-difluoro-5-oxopyrrolidin-2-yl)methoxy)-4-(((1r,4S)-4-hydroxy-4-methylcyclohexyl)ethynyl)-7-isopropoxyisoquinoline-6-carboxamide] was tested, and the IC50 (IL23p19 in THP-1 Cells) was 0.0246 µM, the IC50 (TNF-α in human PBMCs) was 0.0778 µM and the IC50 [1] was 21.3 nM. It also gave an IC50 (IRAK4) of 9.3 nM.

`CC(C)Oc1cc2c(OC[C@@H]3CC(F)(F)C(=O)N3)ncc(C#C[C@H]3CC[C@@](C)(O)CC3)c2cc1C(N)=O` [Compound I-61, 1-(((S)-4,4-difluoro-5-oxopyrrolidin-2-yl)methoxy)-4-(((1s,4R)-4-hydroxy-4-methylcyclohexyl)ethynyl)-7-isopropoxyisoquinoline-6-carboxamide] showed an IC50 (IL23p19 in THP-1 Cells) of 0.102 µM, an IC50 (TNF-α in human PBMCs) of 0.0807 µM and an IC50 [1] of 13 nM. It also gave an IC50 (IRAK4) of 8.8 nM.

With `CC(C)Oc1cc2c(OC[C@@H]3CC(F)(F)C(=O)N3)ncc(C#CC3CN(C(=O)OC(C)(C)C)C3)c2cc1C(N)=O` [Compound I-62, tert-butyl (S)-3-((6-carbamoyl-1-((4,4-difluoro-5-oxopyrrolidin-2-yl)methoxy)-7-isopropoxyisoquinolin-4-yl)ethynyl)azetidine-1-carboxylate] the IC50 (IL23p19 in THP-1 Cells) was 0.0219 µM, the IC50 (TNF-α in human PBMCs) was 0.001 µM and the IC50 [1] was 2.1 nM. It also gave an IC50 (IRAK4) of 19.3 nM.

For `CC(C)Oc1cc2c(OC[C@@H]3CC(F)(F)C(=O)N3)ncc(C#CC3CNC3)c2cc1C(N)=O` [Compound I-63, (S)-4-(azetidin-3-ylethynyl)-1-((4,4-difluoro-5-oxopyrrolidin-2-yl)methoxy)-7-isopropoxyisoquinoline-6-carboxamide], the IC50 (IL23p19 in THP-1 Cells) was 5.9 µM, the IC50 (TNF-α in human PBMCs) was 1.21 µM and the IC50 [1] was 523 nM. It also gave an IC50 (IRAK4) of 2.8 nM.

`COC1(OC)CC(C#Cc2cnc(OC[C@@H]3CC(F)(F)C(=O)N3)c3cc(OC(C)C)c(C(N)=O)cc23)C1` [Compound I-65, (S)-1-((4,4-difluoro-5-oxopyrrolidin-2-yl)methoxy)-4-((3,3-dimethoxycyclobutyl)ethynyl)-7-isopropoxyisoquinoline-6-carboxamide] showed an IC50 (IL23p19 in THP-1 Cells) of 0.0465 µM, an IC50 (TNF-α in human PBMCs) of 0.0065 µM and an IC50 [1] of 29 nM. For the same molecule, the IC50 (IRAK4) was 8.7 nM.

`CC(C)Oc1cc2c(OC[C@@H]3CC(F)(F)C(=O)N3)ncc(-c3cnn(C4CC4)c3)c2cc1C(N)=O` [Compound I-67, (S)-4-(1-cyclopropyl-1H-pyrazol-4-yl)-1-((4,4-difluoro-5-oxopyrrolidin-2-yl)methoxy)-7isopropoxyisoquinoline-6-carboxamide] was tested, and the IC50 (IL23p19 in THP-1 Cells) was 0.608 µM, the IC50 (TNF-α in human PBMCs) was 0.0472 µM and the IC50 [1] was 593 nM. For the same molecule, the IC50 (IRAK4) was 6.3 nM.

`CC(C)Oc1cc2c(OC[C@@H]3CC(F)(F)C(=O)N3)ncc(-c3cnn(C4CCC4)c3)c2cc1C(N)=O` [Compound I-68, (S)-4-(1-cyclobutyl-1H-pyrazol-4-yl)-1-((4,4-difluoro-5-oxopyrrolidin-2-yl)methoxy)-7-isopropoxyisoquinoline-6-carboxamide] gave an IC50 (IL23p19 in THP-1 Cells) of 0.286 µM, an IC50 (TNF-α in human PBMCs) of 0.406 µM and an IC50 [1] of 545 nM. The IC50 (IRAK4) was 9.5 nM.

With `CC(C)Oc1cc2c(OC[C@@H]3CC(F)(F)C(=O)N3)ncc(-c3cnn(C4CCCC4)c3)c2cc1C(N)=O` [Compound I-69, (S)-4-(1-cyclopentyl-1H-pyrazol-4-yl)-1-((4,4-difluoro-5-oxopyrrolidin-2-yl)methoxy)-7-isopropoxyisoquinoline-6-carboxamide] the IC50 (IL23p19 in THP-1 Cells) was 0.391 µM, the IC50 (TNF-α in human PBMCs) was 0.241 µM and the IC50 [1] was 52.3 nM. It also gave an IC50 (IRAK4) of 5.1 nM.

Work on `CC(C)Oc1cc2c(OC[C@@H]3CC(F)(F)C(=O)N3)ncc(-c3cnn(C4CCOCC4)c3)c2cc1C(N)=O` [Compound I-70, (S)-1-((4,4-difluoro-5-oxopyrrolidin-2-yl)methoxy)-7-isopropoxy-4-(1-(tetrahydro-2H-pyran-4-yl)-1H-pyrazol-4-yl)isoquinoline-6-carboxamide] yielded an IC50 (IL23p19 in THP-1 Cells) of 2.26 µM, an IC50 (TNF-α in human PBMCs) of 0.292 µM and an IC50 [1] of 82.7 nM. The IC50 (IRAK4) was 6.8 nM.

`CC(C)Oc1cc2c(OC[C@@H]3CC(F)(F)C(=O)N3)ncc(-c3cnn(CC4CCOCC4)c3)c2cc1C(N)=O` [Compound I-71, (S)-1-((4,4-difluoro-5-oxopyrrolidin-2-yl)methoxy)-7-isopropoxy-4-(1-((tetrahydro-2H-pyran-4-yl)methyl)-1H-pyrazol-4-yl)isoquinoline-6-carboxamide] showed an IC50 (IL23p19 in THP-1 Cells) of 0.848 µM, an IC50 (TNF-α in human PBMCs) of 0.174 µM and an IC50 [1] of 148 nM. It also gave an IC50 (IRAK4) of 6.4 nM.

For `CC(C)Oc1cc2c(OC[C@@H]3CC(F)(F)C(=O)N3)ncc(-c3cnn(CCC4CCOCC4)c3)c2cc1C(N)=O` [Compound I-72, (S)-1-((4,4-difluoro-5-oxopyrrolidin-2-yl)methoxy)-7-isopropoxy-4-(1-(2-(tetrahydro-2H-pyran-4-yl)ethyl)-1H-pyrazol-4-yl)isoquinoline-6-carboxamide], the IC50 (IL23p19 in THP-1 Cells) was 0.872 µM, the IC50 (TNF-α in human PBMCs) was 0.183 µM and the IC50 [1] was 273 nM. It also gave an IC50 (IRAK4) of 7 nM.

Molecule `CC(C)Oc1cc2c(OC[C@@H]3CC(F)(F)C(=O)N3)ncc(-c3cnn([C@H]4C[C@@H](N(C)C)C4)c3)c2cc1C(N)=O` [Compound I-73, 1-(((S)-4,4-difluoro-5-oxopyrrolidin-2-yl)methoxy)-4-(1-(cis-3-(dimethylamino)cyclobutyl)-1H-pyrazol-4-yl)-7-isopropoxyisoquinoline-6-carboxamide] has an IC50 (IL23p19 in THP-1 Cells) of 1.04 µM, an IC50 (TNF-α in human PBMCs) of 0.203 µM and an IC50 [1] of 259 nM. For the same molecule, the IC50 (IRAK4) was 3 nM.

`CC(C)Oc1cc2c(OC[C@@H]3CC(F)(F)C(=O)N3)ncc(-c3cnn(C4CCN(C(=O)OC(C)(C)C)CC4)c3)c2cc1C(N)=O` [Compound I-74, tert-butyl (S)-4-(4-(6-carbamoyl-1-((4,4-difluoro-5-oxopyrrolidin-2-yl)methoxy)-7-isopropoxyisoquinolin-4-yl)-1H-pyrazol-1-yl)piperidine-1-carboxylate] was tested, and the IC50 (IL23p19 in THP-1 Cells) was 0.395 µM, the IC50 (TNF-α in human PBMCs) was 0.141 µM and the IC50 [1] was 493 nM. For the same molecule, the IC50 (IRAK4) was 11.2 nM.

`CC(C)Oc1cc2c(OC[C@@H]3CC(F)(F)C(=O)N3)ncc(-c3cnn(C4CCNCC4)c3)c2cc1C(N)=O` [Compound I-75, (S)-1-((4,4-difluoro-5-oxopyrrolidin-2-yl)methoxy)-7-isopropoxy-4-(1-(piperidin-4-yl)-1H-pyrazol-4-yl)isoquinoline-6-carboxamide] was tested, and the IC50 (IL23p19 in THP-1 Cells) was 85.4 µM, the IC50 (TNF-α in human PBMCs) was 6.64 µM and the IC50 [1] was 4580 nM. The IC50 (IRAK4) was 4 nM.

`CC(C)Oc1cc2c(OC[C@@H]3CC(F)(F)C(=O)N3)ncc(-c3cnn(C4CCN(C)CC4)c3)c2cc1C(N)=O` [Compound I-76, (S)-1-((4,4-difluoro-5-oxopyrrolidin-2-yl)methoxy)-7-isopropoxy-4-(1-(1-methylpiperidin-4-yl)-1H-pyrazol-4-yl)isoquinoline-6-carboxamide] was tested, and the IC50 (IL23p19 in THP-1 Cells) was 1.11 µM, the IC50 (TNF-α in human PBMCs) was 0.375 µM and the IC50 [1] was 452 nM. It also gave an IC50 (IRAK4) of 2.4 nM.

`CCO[C@H]1CC[C@H](n2cc(-c3cnc(OC[C@@H]4CC(F)(F)C(=O)N4)c4cc(OC(C)C)c(C(N)=O)cc34)cn2)CC1` [Compound I-77, 1-(((S)-4,4-difluoro-5-oxopyrrolidin-2-yl)methoxy)-4-(1-(trans-4-ethoxycyclohexyl)-1H-pyrazol-4-yl)-7-isopropoxyisoquinoline-6-carboxamide] gave an IC50 (IL23p19 in THP-1 Cells) of 0.152 µM, an IC50 (TNF-α in human PBMCs) of 0.12 µM and an IC50 [1] of 349 nM. It also gave an IC50 (IRAK4) of 7 nM.

In the case of `CC(C)Oc1cc2c(OC[C@@H]3CC(F)(F)C(=O)N3)ncc(-c3cnn([C@H]4CC[C@](C)(O)CC4)c3)c2cc1C(N)=O` [Compound I-78, 1-(((S)-4,4-difluoro-5-oxopyrrolidin-2-yl)methoxy)-4-(1-((1r,4S)-4-hydroxy-4-methylcyclohexyl)-1H-pyrazol-4-yl)-7-isopropoxyisoquinoline-6-carboxamide], the IC50 (IL23p19 in THP-1 Cells) is reported as 0.162 µM, the IC50 (TNF-α in human PBMCs) is reported as 0.234 µM and the IC50 [1] is reported as 652 nM. The IC50 (IRAK4) was 3.6 nM.

In the case of `CC(C)Oc1cc2c(O[C@@H]3CCCNC3)ncc(C#CC3CCOCC3)c2cc1C(N)=O` [Compound I-86, (R)-7-isopropoxy-1-(piperidin-3-yloxy)-4-((tetrahydro-2H-pyran-4-yl)ethynyl)isoquinoline-6-carboxamide], the IC50 (IL23p19 in THP-1 Cells) is reported as 5.29 µM, the IC50 (TNF-α in human PBMCs) is reported as 1.74 µM and the IC50 [1] is reported as 1030 nM. The IC50 (IRAK4) was 91.3 nM.

`CC(C)Oc1cc2c(O[C@@H]3CCCNC3)ncc(C#CCC3CCOCC3)c2cc1C(N)=O` [Compound I-87, (R)-7-isopropoxy-1-(piperidin-3-yloxy)-4-(3-(tetrahydro-2H-pyran-4-yl)prop-1-yn-1-yl)isoquinoline-6-carboxamide] showed an IC50 (IL23p19 in THP-1 Cells) of 5.02 µM, an IC50 (TNF-α in human PBMCs) of 1.97 µM and an IC50 [1] of 776 nM. It also gave an IC50 (IRAK4) of 52.2 nM.
